Experimental data taken from paper PMC12444472, “BCI inhibits MKP3 by targeting the kinase-binding domain and disrupting ERK2 interaction” (The Journal of Biological Chemistry, 2025).

Target: T1, MKP3^KBD and ERK2 complex (Homo sapiens, UniProt Q16828)
T1 construct: spectra of ^15N-MKP3^1–154 in the presence of ERK2; made in house; host or cells: Escherichia coli BL21(DE3)
T1 sequence (Q16828 1-154): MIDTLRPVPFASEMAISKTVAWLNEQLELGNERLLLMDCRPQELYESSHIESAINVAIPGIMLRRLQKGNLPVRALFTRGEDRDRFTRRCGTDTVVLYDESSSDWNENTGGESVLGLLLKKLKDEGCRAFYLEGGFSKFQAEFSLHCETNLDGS
Assay: NMR competitive binding titration of ERK2 and BCI
Details: excess BCI added to MKP3^KBD and ERK2 complex
Method: NMR data were collected at 298 K on a Bruker AVANCE NEO 800 MHz spectrometer (Bruker BioSpin) equipped with a ^1H&^19F/^13C/^15N TCI cryogenic probe. Backbone resonances of MKP3^1–154 were assigned using 2D/3D experiments, including 2D ^1H–^15N HSQC and 3D ^1H/^13C/^15N CBCA(CO)NH, HNCACB, HNCO, and HN(CA)CO, performed with uniformly ^13C/^15N labeled protein at a final concentration of 0.39 mM in buffer containing 20 mM imidazole (pH 6.0), 100 mM NaCl, 5 mM DTT, 0.5 mM EDTA, and 5% (v/v) D2O. The buffer used for backbone resonance assignment was similar to that used for the previously reported NMR structure ([15]). […] The relaxation rates R1 (1/T1) and R2 (1/T2) for each residue were determined by fitting the peak intensities from spectra acquired at the various delay times to a single-exponential decay function: I/I0 = exp(-R1,2·t), where I0 is the intensity at t = 0, and I is the intensity at a delay time t. […] Repeated experiments were performed to estimate uncertainties, and the propagated error for each NOE value was calculated using the following equation: σNOE = NOE × ((σsat/Isat)^2+(σunsat/Iunsat)^2)^1/2, where σsat and σunsat are the SDs of the saturated and unsaturated spectra, respectively, and Isat and Iunsat are the corresponding signal intensities. NMR data were processed using TopSpin 4.1.1 (Bruker BioSpin) or NMRPipe ([54]) and analyzed with POKY ([55]).

O=C1/C(=C/c2ccccc2)C(NC2CCCCC2)c2ccccc21 (stereo not shown) [BCI, (E)-2-benzylidene-3-(cyclohexylamino)-2,3-dihydro-1H-inden-1-one]
effect on ERK2-bound MKP3^KBD spectrum: reversion of specific MKP3^KBD peaks to their ERK2-unbound state
